Experimental data: patent publication US10903496B2, “Rigid naphthalenediimide triangle structures” (Northwestern University, priority 2015, dated 2021)
In brackets after ≈: the same amount, converted by molar mass. Like-named read-outs stand apart in the source and are kept apart here.

How the values were obtained:
[1] = Solubility in non-aqueous electrolyte solvents; assay type: physicochemical; details: for solubility in non-aqueous electrolyte solvents (in words): neutral state
[2] = Thermal gravimetric analysis (thermal stability); assay type: physicochemical
Procedure: Thermal stabilities were analyzed using a PerkinElmer Pyris Diamond TG/DTA analyzer. The temperature was increased from room temperature to 600° C. at a heating rate of 10° C. min^−1 under N2 atmosphere. […] The greater thermal stability of (−)-NDI-Δ is attributed to its higher molecular weight and more rigid structure compared to NDI-Ref.

Row | Compound | solubility in non-aqueous electrolyte solvents (in words) [1] | thermal stability: temperature up to which stable / at which decomposition starts [2] [°C] | solubility in the electrolyte solvents ([1]; electrolyte solvents) [µg/mL] | thermal stability: temperature up to which stable / at which decomposition starts ([2]; TGA, room temperature to 600° C. at 10° C. min^−1 under N2, one-step decomposition) [°C]
1 | O=C1c2ccc3c4c5ccc(c24)C(=O)N1C1CCCC[C@@H]1N1C(=O)c2ccc4c6c(ccc(c26)C1=O)C(=O)N(C4=O)[C@H]1CCCC[C@@H]1N1C(=O)c2ccc4c6c(ccc(c26)C1=O)C(=O)N(C4=O)C1CCCC[C@@H]1N(C3=O)C5=O (single isomer, unassigned; (+)) [(+)-NDI-Δ] | only sparingly soluble | – | – | –
2 | O=C1c2ccc3c4c5ccc(c24)C(=O)N1C1CCCC[C@H]1N1C(=O)c2ccc4c6c(ccc(c26)C1=O)C(=O)N(C4=O)C1CCCC[C@H]1N1C(=O)c2ccc4c6c(ccc(c26)C1=O)C(=O)N(C4=O)C1CCCC[C@H]1N(C3=O)C5=O (single isomer, unassigned; (-)) [(−)-NDI-Δ] | only sparingly soluble | 400 | – | –
3 | O=C1c2ccc3c4c(ccc(c24)C(=O)N1C1CCCCC1)C(=O)N(C1CCCCC1)C3=O [NDI-Ref] | considerably more soluble | – | ~100 (≈ 232 µM) | 250
